Source: US9266921B2, “PGC-1α-modulating peptides” (Lipotec, S.A., priority 2011, dated 2016)

Columns and labels:
[1] = tested on: subcutaneous human pre-adipocytes; assay: Accumulation of lipids in subcutaneous human pre-adipocytes (AdipoRed); type: cell-based; details: peptide 0.1 mg/mL in PDM-2, 10 days, PGM-2 = 0%, PDM-2 = 100%
Method: The levels of accumulation of lipids in subcutaneous human pre-adipocytes were quantified using the AdipoRed™ (Lonza) reagent. 100,000 cells were cultivated per well in PGM™-2 medium at a final volume of 100 μL. After 24 hours, the differentiation from pre-adipocytes to mature adipocytes was induced changing the medium to PDM-2 in the presence of the different peptides at 0.1 mg/mL. After 10 days of treatment with the peptides in differentiation medium, the quantity of intracellular lipids was evaluated using the AdipoRed™ reagent following the manufacturer's instructions measuring the fluorescence of the samples (length of the excitation wave 485 nm and emission 535 nm) after adding the AdipoRed™ reagent. The fluorescence values were corrected with regards to the basal fluorescence and were normalized with regards to the maximum differentiation controls (PDM-2 medium, maximum accumulation of lipids) and minimum differentiation (PGM™-2 medium, minimum accumulation of lipids).

human PGC-1α promoter = assay: Modulation of the human PGC-1α promoter activity (luciferase reporter, Hep G2); type: cell-based; details: Hep G2 transfected with luciferase under human PGC-1α promoter; peptide 0.5 mg/mL, 24 hours; normalized to carrier = 100%
Method: The modulation capacity of the promoter of human PGC-1α is evaluated by the peptides in the invention in the hepatocellular Hep G2 carcinoma cell line transfected with the luciferase gene under the regulation of the human PGC-1α promoter. The cells are seeded at a density of 20,000 cells/25 cm^2 plate) and incubated for 24 hours in RPMI-1640 complete medium, after which the peptides of the invention are added at 0.5 mg/mL and are incubated for another 24 hours. The RPMI-1640 complete medium (carrier) is used as a negative control. The measurement of the promoter's activity is carried out using the Steady-Glo® Luciferase Assay System (PROMEGA) kit following the manufacturer's instructions. The luminescence values are read on a luminometer […] and the activity of the promoter is determined, which is normalized with regards to the values of the negative control.

PGC-1α gene = assay: Transcription of the PGC-1α gene, quantitative real time PCR in differentiating pre-adipocytes; type: cell-based; details: subcutaneous human adipocytes; peptide 0.1 mg/mL in PDM-2, 10 days; PGM-2 = 0%, PDM-2 = 100%
Method: The expression levels of the gene PGC-1α are measured by PCR in quantitative real time. A cell line of subcutaneous human pre-adipocytes is incubated in PGM™-2 medium at a density of 100,000 cells/well in a volume of 100 μL for 24 hours. Differentiation is induced by changing the medium to PDM-2 in the presence of the peptides Ac-L-Ser-L-Ile-L-Tyr-L-Val-L-Ala-L-Thr-NH2 (Ac-SEQ ID NO. 1-NH2) and Ac-L-Ser-L-Val-L-Val-L-Val-L-Arg-L-Thr-NH2 (Ac-SEQ ID NO. 2-NH2) at 0.1 mg/mL for 10 days, after which the cells were lysed and the RNA is extracted. The PCR is carried out in quantitative real time using the Taqman® Gene Expression Cells-to-CT (Applied Biosystems) kit according to the manufacturer's instructions and with the appropriate probes (TaqMan® Hs01016719_m1 probe for the PGC-1α gene and Taqman® Hs99999901_s1 probe for the eukaryotic ribosomal subunit 18S, the endogenous control of expression) and the values are normalized with regards to the maximum differentiation controls (PDM-2 medium, maximum quantity of PGC-1α mRNA) and minimal differentiation (PGM™-2 medium, minimum quantity of PGC-1α mRNA).

breasts = assay: Volume of the breasts in volunteers (Fast Optical In Vivo Topometry); design: species or system human; details: treatment up to 56 days
Text: 22 Caucasian volunteers between the age of 25 and 40, with healthy skin and a bra size of between 36 C to 40 E applied the composition from Example 16 to one breast and a placebo composition (the same composition from Example 16 without the peptide) to the other breast, twice a day for 56 days. The volume of the breasts was instrumentally assessed at the beginning of the study, after 14 days and 28 days of applying the compositions and at the end of the study (56 days) using the Fast Optical In Vivo Topometry Technique, which enables the volume of the breasts to be calculated in mm^3. The volume of the breasts was normalized initially at an arbitrary value of 100,000 mm^3 and the changes in volume of the breasts was measured at the different treatment times in relation to their initial volume. The statistical analysis of the evolution of the parameters measured during the study was carried out using the Student's t-test or the Wilcoxon test. The statistical significance threshold was established at 5%.

cellulitis (thigh) = assay: Reduction of cellulitis in volunteers, length of the dermo-hypodermic junction line (ultrasound); type: in vivo, human; details: after 21 days of treatment
Text: 20 Caucasian volunteers between the age of 25 and 45, with healthy skin and affected by cellulitis levels I-III according to the pinch test applied the composition from Example 15 to one thigh and a placebo composition (the same composition from Example 15 without the peptide) to the other thigh, twice a day for 21 days. The length of the dermo-hypodermic junction line was instrumentally assessed using the Ultrasound Scanner Dermascan C® (Cortex Technology, Denmark) at the beginning of the study and at the end of the study (21 days). The measurement of the length of the dermo-hypodermic junction line is related to the formation of cellulitis and skin irregularities [Quatresooz P et al., “Cellulite histopathology and related mechanobiology”, (2006), Int. J. Cosm. Sci., 28, 207-210]. A reduction in the length of the dermo-hypodermic junction line leads to softer and more regular skin, and as such cellulitis will be less visible. The statistical analysis of the evolution of the parameters measured during the study was carried out using the Student's t-test. The statistical significance threshold was established at 5%.

Substance	% Accumulation of intracellular lipids [1]	Activity of the PGC-1α promoter (%) (human PGC-1α promoter)	% relative quantity of PGC-1α mRNA (PGC-1α gene)	effect on the volume of the breasts (breasts)	effect on the length of the dermo-hypodermic junction line and cellulitis (cellulitis (thigh))
Ac-L-Ser-L-Ile-L-Val-L-Val-Gly-L-Thr-NH2 (Ac-SIVVGT-NH2) [Ac-SEQ ID NO. 22-NH2]	43%	63%			
Ac-L-His-L-Val-L-Tyr-L-Val-L-Arg-L-Thr-NH2 (Ac-HVYVRT-NH2) [Ac-SEQ ID NO. 12-NH2]	84%	114%			
Ac-L-Ser-L-Ile-L-Tyr-L-Val-L-Arg-L-Thr-NH2 (Ac-SIYVRT-NH2) [Ac-SEQ ID NO. 11-NH2]	76%	151%			
Ac-L-Ser-L-Ile-L-Val-L-Val-Gly-L-Val-NH2 (Ac-SIVVGV-NH2) [Ac-SEQ ID NO. 46-NH2]	38%	78%			
Ac-L-His-L-Ile-L-Val-L-Val-Gly-L-Thr-NH2 (Ac-HIVVGT-NH2) [Ac-SEQ ID NO. 21-NH2]	114%	110%			
Ac-L-Ser-L-Val-L-Tyr-L-Val-L-Arg-L-Thr-NH2 (Ac-SVYVRT-NH2) [Ac-SEQ ID NO. 13-NH2]	79%	131%			
Ac-L-Ser-L-Val-L-Val-L-Val-L-Arg-L-Thr-NH2 (Ac-SVVVRT-NH2) [Ac-SEQ ID NO. 2-NH2]	128%	114%	125%	induces an increase in the volume of the breasts	
Ac-L-Ser-L-Val-L-Tyr-L-Val-L-Ala-L-Thr-NH2 (Ac-SVYVAT-NH2) [Ac-SEQ ID NO. 5-NH2]	48%	69%			
Ac-L-Ser-L-Val-L-Val-L-Val-Gly-L-Val-NH2 (Ac-SVVVGV-NH2) [Ac-SEQ ID NO. 48-NH2]	37%	75%			
Ac-L-Ser-L-Val-L-Tyr-L-Val-L-Arg-L-Val-NH2 (Ac-SVYVRV-NH2) [Ac-SEQ ID NO. 36-NH2]		136%			
Ac-L-Ser-L-Ile-L-Tyr-L-Val-Gly-L-Thr-NH2 (Ac-SIYVGT-NH2) [Ac-SEQ ID NO. 18-NH2]		64%			
Ac-L-Ser-L-Ile-L-Tyr-L-Val-L-Ala-L-Thr-NH2 (Ac-SIYVAT-NH2) [Ac-SEQ ID NO. 1-NH2]	33%	57%	63%		induces a reduction in the length of the dermo-hypodermic junction line
